How the values were obtained:
collagen genes = test: Expression of collagen genes in normal human fibroblasts (quantitative real-time PCR, standardized to GAPDH); type: cell-based; settings: NB1RGB cells, 24 hours
Experimental: (§1) The gene expression of collagen and elastin in normal human fibroblasts was examined. Further, it has been known that a decrease in expression level of collagen and elastin due to cellular aging causes wrinkles.
(§2) NB1RGB cells (purchased from Riken BioResource Center), which are normal human fibroblasts, were seeded in a plastic dish at a seeding density of 10000 cells/cm^2 and cultured in Dulbecco's Modified Eagle's medium (DMEM) (manufactured by Sigma-Aldrich Corporation) containing 10% fetal bovine serum for 24 hours. Thereafter, each inositol derivative of Examples 1 to 6 and Comparative Example 1 in a state of being dissolved in purified water was added to the medium at a final concentration of 0.01 w/v % and further cultured for 24 hours. […]
(§3) Next, total RNA was extracted from cells of each group to synthesize cDNA. Next, the expression levels of collagen genes and elastin genes in NB1RGB cells of each group were quantified by performing quantitative real-time PCR using the cDNA as a template. Further, the expression level of glyceraldehyde-3-phospahte dehydrogenase (GAPDH), which is a housekeeping gene, was quantified as an internal standard gene, and the expression levels of collagen genes and elastin genes were respectively standardized based on the expression level of the GAPDH genes in the NB1RGB cells of each group. […]

elastin genes = test: Expression of elastin genes in normal human fibroblasts (quantitative real-time PCR, standardized to GAPDH); type: cell-based; settings: NB1RGB cells, 0.001 w/v % myo-inositol, 24 hours, purified water = 1.00
Experimental: as §1, §2, §3

Q: With `O[C@H]1[C@H](O)[C@@H](O)[C@H](O)[C@@H](O)[C@H]1O` [myo-Inositol] as the molecule, how does the “Expression level of genes (relative value) Collagen” value (collagen genes; 0.001 w/v % myo-inositol, standardized to GAPDH, purified water = 1.00) read?
A: The value was 0.54 relative value.

Q: And the “Expression of collagen genes compared to the purified water as a control (in words)” value (collagen genes; inositol derivatives 0.01 w/v %, myo-inositol 0.001 w/v %)?
A: Its value is “a decrease in expression of collagen genes was shown”.

Q: What about the “Expression level of genes (relative value) Elastin” value (elastin genes) of the same molecule?
A: The value was 1.23 relative value.

— patent publication US10918585B2, “Anti-aging agent and anti-aging composition for skin” (SHOWA DENKO K.K., priority 2015, dated 2021)
